Reference: patent publication US9872499B2, “Virus-inactivating composition containing low-molecular weight compound and arginine” (priority 2010, dated 2018)

Columns and labels:
[1] = system: herpes simplex virus type 1 (HSV-1) strain F; assay: Virus inactivating reaction with HSV-1 in sample solution, remaining infectious virus by plaque assay; assay type: cell-based
[2] = system: influenza virus A/Aichi (H3N2); assay: Virus inactivating reaction with influenza virus A in sample solution, remaining infectious virus by plaque assay; assay type: cell-based; conditions: for Relative Inactivating Efficiency: relative to 0.01% CAE alone
[3] = 0.1 mM catechin compound alone, pH 4.0, 30° C. 5 min
[4] = 0.1 mM catechin compound, 0 M arginine, pH 4.0, relative to 0.1 mM of the same compound alone
[5] = 0.1 mM catechin compound, 0.2 M arginine, pH 4.0, relative to 0.1 mM of the same compound alone
[6] = 0.5 mM catechin compound, 0 M arginine, pH 4.0, relative to 0.1 mM of the same compound alone

## O=C1O[C@H]([C@@H](O)CO)C(=O)C1=O [Dehydroascorbic acid, dehydroascorbic acid]
[1]; 0.1 mM dehydroascorbic acid alone, pH 4.0, 30° C. 5 min
  remaining viral titer, % of the viral amount before inactivation: 7.3%
[1]; 0.1 mM dehydroascorbic acid, 0 M arginine, pH 4.0, relative to 0.1 mM compound alone
  Relative Inactivating Efficiency: 1 times
[1]; 0.1 mM dehydroascorbic acid, 0.2 M arginine, pH 4.0, relative to 0.1 mM compound alone
  Relative Inactivating Efficiency: 248 times
[1]; 1 mM dehydroascorbic acid, 0 M arginine, pH 4.0, relative to 0.1 mM compound alone
  Relative Inactivating Efficiency: 1 times
[1]; 1 mM dehydroascorbic acid, 0.2 M arginine, pH 4.0, relative to 0.1 mM compound alone
  Relative Inactivating Efficiency: 1440 times
[1]; 10 mM dehydroascorbic acid, 0 M arginine, pH 4.0, relative to 0.1 mM compound alone
  Relative Inactivating Efficiency: 1 times
[1]; 10 mM dehydroascorbic acid, 0.2 M arginine, pH 4.0, relative to 0.1 mM compound alone
  Relative Inactivating Efficiency: >7200 times
[1]; 10 mM dehydroascorbic acid, 0.2 M arginine, pH 4.0, relative to 0.1 mM compound alone, listed as dehydroascorbic acid
  Relative Inactivating Efficiency: more than 7200 times

## N=C(N)NCCC[C@H](N)C(=O)O [Arginine, arginine]
[1]; 0% CAE, 0.058 M arginine alone, pH 4.0, 10 mM sodium citrate, relative to 0.005% CAE alone
  Relative Inactivating Efficiency: 0.03 times
[1]; pH 4
  Relative Inactivating Efficiency: 1075 times

## cocoyl arginine ethyl ester [CAE]
[2]; 0.01% CAE alone, pH 4.8, 30° C. 5 min
  viral titer after inactivation, % of that before inactivation: 3.1%
[2]; 0.01% CAE, 0 M arginine, pH 4.8, 10 mM sodium citrate
  Relative Inactivating Efficiency: 1 Times
[2]; 0.01% CAE, 0.115 M arginine, pH 4.8
  Relative Inactivating Efficiency: 82 Times
[2]; 0.02% CAE, 0.115 M arginine, pH 4.8
  Relative Inactivating Efficiency: 63 Times
[1]; 0.005% CAE alone, pH 4.0, 30° C. 5 min
  viral titer after inactivation, % of that before inactivation: 0.4%
[1]; 0.005% CAE, 0 M arginine, pH 4.0, 10 mM sodium citrate, relative to 0.005% CAE alone
  Relative Inactivating Efficiency: 1 times
[1]; 0.005% CAE, 0.058 M arginine, pH 4.0, relative to 0.005% CAE alone
  Relative Inactivating Efficiency: 1.13 times
[1]; 0.005% CAE, 0.115 M arginine, pH 4.0, relative to 0.005% CAE alone
  Relative Inactivating Efficiency: 20 times

## O=C(/C=C/c1ccc(O)c(O)c1)OCCc1ccccc1 [Caffeic acid phenethyl ester, caffeic acid phenethyl ester]
[1]; 0.01 mM caffeic acid phenethyl ester alone, pH 4.0, 30° C. 5 min
  remaining viral titer, % of that obtained before inactivation: 0.3%
[1]; 0.01 mM caffeic acid phenethyl ester, 0 M arginine, pH 4.0, relative to 0.01 mM compound alone
  Relative Inactivating Efficiency: 1 times
[1]; 0.01 mM caffeic acid phenethyl ester, 0.2 M arginine, pH 4.0, relative to 0.01 mM compound alone
  Relative Inactivating Efficiency: 8 times
[1]; 0.05 mM caffeic acid phenethyl ester, 0 M arginine, pH 4.0, relative to 0.01 mM compound alone
  Relative Inactivating Efficiency: 1 times
[1]; 0.05 mM caffeic acid phenethyl ester, 0.2 M arginine, pH 4.0, relative to 0.01 mM compound alone
  Relative Inactivating Efficiency: 122 times
[1]; 0.1 mM caffeic acid phenethyl ester, 0 M arginine, pH 4.0, relative to 0.01 mM compound alone
  Relative Inactivating Efficiency: 1 times
[1]; 0.1 mM caffeic acid phenethyl ester, 0.2 M arginine, pH 4.0, relative to 0.01 mM compound alone
  Relative Inactivating Efficiency: >243 times
[1]; 0.1 mM caffeic acid phenethyl ester, 0.2 M arginine, pH 4.0, relative to 0.01 mM compound alone, listed as caffeic acid phenethyl ester
  Relative Inactivating Efficiency: more than 243 times

## O=C(O[C@@H]1Cc2c(O)cc(O)cc2O[C@@H]1c1ccc(O)c(O)c1)c1cc(O)c(O)c(O)c1 [(−)epicatechin gallate]
[1]; [3]
  remaining viral titer, % of the viral amount before inactivation: 0.04%
[1]; [4]
  Relative Inactivating Efficiency: 1 times
[1]; [5]
  Relative Inactivating Efficiency: 59 times
[1]; [6]
  Relative Inactivating Efficiency: 27 times

## [Cl-].[Na+] [NaCl, reference compound]
[1]; pH 4
  Relative Inactivating Efficiency: 0.011 times

## O=C(O)/C=C/c1ccc(O)c(O)c1 [Caffeic acid, caffeic acid]
[1]; 0.1 mM caffeic acid alone, pH 4.0 (Comparative Example 2)
  viral titer after inactivation, % of that before inactivation: 0.13%
[1]; 0.1 mM caffeic acid alone, pH 4.0, 30° C. 5 min (Example 1)
  viral titer after inactivation, % of the viral amount before inactivation: 0.3%
[1]; 0.1 mM caffeic acid, 0 M NaCl, pH 4.0, 20 mM sodium acetate, relative to 0.1 mM caffeic acid alone
  Relative Inactivating Efficiency: 1 times
[1]; 0.1 mM caffeic acid, 0 M arginine, pH 4.0, 30° C. 5 min, relative to 0.1 mM caffeic acid alone
  Relative Inactivating Efficiency: 1 times
[1]; 0.1 mM caffeic acid, 0.2 M NaCl, pH 4.0, relative to 0.1 mM caffeic acid alone
  Relative Inactivating Efficiency: 0.010 times
[1]; 0.1 mM caffeic acid, 0.2 M NaCl, pH 4.0, relative to 0.1 mM caffeic acid alone, listed as caffeic acid
  Relative Inactivating Efficiency: 0.01 times
[1]; 0.1 mM caffeic acid, 0.2 M arginine, pH 4.0, 30° C. 5 min, relative to 0.1 mM caffeic acid alone
  Relative Inactivating Efficiency: 1.5 times
[1]; 0.5 mM caffeic acid, 0 M arginine, pH 4.0, 30° C. 5 min, relative to 0.1 mM caffeic acid alone
  Relative Inactivating Efficiency: 1.3 times
[1]; 0.5 mM caffeic acid, 0.2 M NaCl, pH 4.0, relative to 0.1 mM caffeic acid alone
  Relative Inactivating Efficiency: 0.009 times
[1]; 0.5 mM caffeic acid, 0.2 M arginine, pH 4.0, 30° C. 5 min, relative to 0.1 mM caffeic acid alone
  Relative Inactivating Efficiency: 3.3 times
[1]; 1 mM caffeic acid, 0 M arginine, pH 4.0, 30° C. 5 min, relative to 0.1 mM caffeic acid alone
  Relative Inactivating Efficiency: 1.4 times
[1]; 1.0 mM caffeic acid, 0.2 M NaCl, pH 4.0, relative to 0.1 mM caffeic acid alone
  Relative Inactivating Efficiency: 0.007 times
[1]; 1 mM caffeic acid, 0.2 M arginine, pH 4.0, 30° C. 5 min, relative to 0.1 mM caffeic acid alone
  Relative Inactivating Efficiency: 7.8 times

## (−)epigallocatechin gallate
[1]; [3]
  remaining viral titer, % of the viral amount before inactivation: 0.02%
[1]; [4]
  Relative Inactivating Efficiency: 1 times
[1]; [5]
  Relative Inactivating Efficiency: 12 times
[1]; [6]
  Relative Inactivating Efficiency: 268 times
